According to patent US6461997B1, “Triazole sulfones having herbicidal activity” (Monsanto Technology LLC, priority 1999, dated 2002):

Legend:
[1] = tested on: GALAP (catchweed bedstraw); experiment: Pre-emergence herbicidal activity, cool season; assay type: in vivo, Galium aparine; details: lowest tested rate with 80% or greater inhibition; rates 300, 100, 30, 10 g/ha; about 14 days
Summary of the method: (§1)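 Seeds sown in sterilised fertilised topsoil received surface-applied compound in 50:50 acetone/water, typically at 300, 100, 30 and 10 g/ha, then greenhouse-grown at 30/21° C (warm-season species) or 18/13° C (cool-season species). Percent inhibition versus untreated plants was scored at about 14 days, giving GR80; an asterisk marks activity short of 80% at the top rate.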

POLCO (wild buckwheat) = experiment: Pre-emergence herbicidal activity, cool season; assay type: in vivo, Polygonum convolvulus; details: lowest tested rate with 80% or greater inhibition; rates 300, 100, 30, 10 g/ha; about 14 days
Summary of the method: (§2)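 Read-out: GR80, derived from percent growth inhibition relative to untreated plants at roughly 14 days after planting and treatment. Compounds went onto the surface of freshly seeded soil at 10–300 g/ha. Day/night regimes were 30/21 °C for millet and crabgrass, 18/13 °C for blackgrass and buckwheat.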

SINAR (wild mustard) = experiment: Pre-emergence herbicidal activity, cool season; assay type: in vivo, Sinapis arvensis; details: lowest tested rate with 80% or greater inhibition; rates 300, 100, 30, 10 g/ha; about 14 days
Summary of the method: as §1

[2] = tested on: VERPE (creeping speedwell); experiment: Pre-emergence herbicidal activity, cool season; assay type: in vivo, Veronica persicaria; details: lowest tested rate with 80% or greater inhibition; rates 300, 100, 30, 10 g/ha; about 14 days
Summary of the method: as §1

SASKR (russian thistle) = experiment: Pre-emergence herbicidal activity, cool season; assay type: in vivo, Salsola kali; details: lowest tested rate with 80% or greater inhibition; rates 300, 100, 30, 10 g/ha; about 14 days
Summary of the method: as §1

STEME (common chickweed) = experiment: Pre-emergence herbicidal activity, cool season; assay type: in vivo, Stellaria media; details: lowest tested rate with 80% or greater inhibition; rates 300, 100, 30, 10 g/ha; about 14 days
Summary of the method: as §1

[3] = tested on: LAMPU (purple deadnettle); experiment: Pre-emergence herbicidal activity, cool season; assay type: in vivo, Lamium purpureum; details: lowest tested rate with 80% or greater inhibition; rates 300, 100, 30, 10 g/ha; about 14 days
Summary of the method: as §1

SETVI (green foxtail) = experiment: Pre-emergence herbicidal activity, cool season; assay type: in vivo, Setaria viridis; details: GR80 = lowest tested rate (300, 100, 30, 10 g/ha) with 80% or greater inhibition; approx. 14 days after treating; 18/13° C.
Summary of the method: as §1

LOLMG (annual ryegrass) = experiment: Pre-emergence herbicidal activity, cool season; assay type: in vivo, Lolium multiflorum; details: GR80 = lowest tested rate (300, 100, 30, 10 g/ha) with 80% or greater inhibition; approx. 14 days after treating; 18/13° C.
Method: (§3) Tables 5 to 8 summarize results of tests conducted as described below to determine the pre-emergence herbicidal activity, in the form of a GR80 value, of illustrative compounds of this invention. […] Compounds of the invention were typically applied at rates of 300, 100, 30, and 10 g/ha. Where herbicidal activity was evident but 80% inhibition was not achieved at the highest rate tested, an asterisk (*) is shown in the following tables.
(§4) The pre-emergence tests were conducted by the following procedure. Topsoil was sieved to pass through a 1.27 cm screen. Fertilizer was added to the topsoil and the mixture was then sterilized by heating. The topsoil mixture was placed in a pot and compacted to a depth of 1.0 to 1.25 cm from the top of the pot. Seeds of each of several monocotyledonous and dicotyledonous annual plant species were placed on top of the soil. Additional soil was subsequently placed over the seeds to level-fill the pot. A known amount of each test compound dissolved or suspended in an appropriate organic solvent was diluted with a 50:50 mix of acetone and water and applied to the surface of the soil. After treatment the plants were placed in a greenhouse where they received 0.64 cm of overhead irrigation. All subsequent watering consisted of a light overhead mist and/or subirrigation as needed for germination and growth. Tables 5 and 6 below relate to warm season plant species which were placed after pre-emergence treatment in a greenhouse with a 30/21° C. day/night temperature regime. Tables 7 and 8 below relates to cool season plant species placed after pre-emergence treatment in a greenhouse or growth chamber with an 18/13° C. day/night temperature regime.
(§5) Approximately 14 days after planting and treating, the plants were observed and herbicidal efficacy recorded as percent inhibition by comparison with untreated plants.
(§6) The plant species usually regarded as weeds which were utilized in the tests are identified in the tables below according to the following legend, in which “d” indicates a dicotyledonous species and “m” a monocotyledonous species. All monocotyledonous species included in the tests herein are grasses.

BROTE (downy brome) = experiment: Pre-emergence herbicidal activity, cool season; assay type: in vivo, Bromus tectorum; details: GR80 = lowest tested rate (300, 100, 30, 10 g/ha) with 80% or greater inhibition; approx. 14 days after treating; 18/13° C.
Method: as §3, §4, §5, §6

[4] = tested on: AGSST (creeping bentgrass); experiment: Pre-emergence herbicidal activity, cool season; assay type: in vivo, Agrostis stolonifera; details: GR80 = lowest tested rate (300, 100, 30, 10 g/ha) with 80% or greater inhibition; approx. 14 days after treating; 18/13° C.
Summary of the method: as §1

ABUTH (velvetleaf) = experiment: Pre-emergence herbicidal activity, warm season; assay type: in vivo, Abutilon theophrasti; details: GR80 = lowest tested rate (300, 100, 30, 10 g/ha) with 80% or greater inhibition; approx. 14 days after treating; 30/21° C.
Method: as §3, §4, §5, §6

[5] = tested on: PANMI (wild proso millet); experiment: Pre-emergence herbicidal activity, warm season; assay type: in vivo, Panicum miliaceum; details: GR80 = lowest tested rate (300, 100, 30, 10 g/ha) with 80% or greater inhibition; approx. 14 days after treating; 30/21° C.
Summary of the method: as §2

SORVU (shattercane) = experiment: Pre-emergence herbicidal activity, warm season; assay type: in vivo, Sorghum vulgare; details: GR80 = lowest tested rate (300, 100, 30, 10 g/ha) with 80% or greater inhibition; approx. 14 days after treating; 30/21° C.
Method: as §3, §4, §5, §6

ALOMY (blackgrass) = experiment: Pre-emergence herbicidal activity, cool season; assay type: in vivo, Alopecurus myosuroides; details: GR80 = lowest tested rate (300, 100, 30, 10 g/ha) with 80% or greater inhibition; approx. 14 days after treating; 18/13° C.
Summary of the method: as §2

AMARE (redroot pigweed) = experiment: Pre-emergence herbicidal activity, warm season; assay type: in vivo, Amaranthus retroflexus; details: GR80 = lowest tested rate (300, 100, 30, 10 g/ha) with 80% or greater inhibition; approx. 14 days after treating; 30/21° C.
Method: as §3, §4, §5, §6

DIGSA (large crabgrass) = experiment: Pre-emergence herbicidal activity, warm season; assay type: in vivo, Digitaria sanguinalis; details: GR80 = lowest tested rate (300, 100, 30, 10 g/ha) with 80% or greater inhibition; approx. 14 days after treating; 30/21° C.
Summary of the method: as §2

[6] = tested on: SORHA (johnsongrass (seedling)); experiment: Pre-emergence herbicidal activity, warm season; assay type: in vivo, Sorghum halepense; details: GR80 = lowest tested rate (300, 100, 30, 10 g/ha) with 80% or greater inhibition; approx. 14 days after treating; 30/21° C.
Summary of the method: (§7)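 Activity is expressed as the rate giving 80% inhibition, with 300, 100, 30 and 10 g/ha typically tested. An asterisk marks activity short of 80% at the top rate. Warm-season grasses were held at 30/21 °C; cool-season blackgrass and wild buckwheat at 18/13 °C; scoring at about 14 days.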

SETFA (giant foxtail) = experiment: Pre-emergence herbicidal activity, warm season; assay type: in vivo, Setaria faberi; details: GR80 = lowest tested rate (300, 100, 30, 10 g/ha) with 80% or greater inhibition; approx. 14 days after treating; 30/21° C.
Summary of the method: as §7

PANDI (fall panicum) = experiment: Pre-emergence herbicidal activity, warm season; assay type: in vivo, Panicum dichotomiflorum; details: GR80 = lowest tested rate (300, 100, 30, 10 g/ha) with 80% or greater inhibition; approx. 14 days after treating; 30/21° C.
Method: as §3, §4, §5, §6

SMILES	Pre-emergence activity GR80, GALAP [1]	Pre-emergence activity GR80, POLCO (POLCO (wild buckwheat))	Pre-emergence activity GR80, SINAR (SINAR (wild mustard))	Pre-emergence activity GR80, VERPE [2] [g/ha]	Pre-emergence activity GR80, SASKR (SASKR (russian thistle)) [g/ha]	Pre-emergence activity GR80, STEME (STEME (common chickweed)) [g/ha]	Pre-emergence activity GR80, LAMPU [3] [g/ha]	Pre-emergence activity (GR80) SETVI (SETVI (green foxtail)) [g/ha]	Pre-emergence activity (GR80) LOLMG (LOLMG (annual ryegrass)) [g/ha]	Pre-emergence activity (GR80) BROTE (BROTE (downy brome)) [g/ha]	Pre-emergence activity (GR80) AGSST [4] [g/ha]	Pre-emergence activity (GR80) ABUTH (ABUTH (velvetleaf)) [g/ha]	Pre-emergence activity (GR80) PANMI [5] [g/ha]	Pre-emergence activity (GR80) SORVU (SORVU (shattercane)) [g/ha]	Pre-emergence activity (GR80) ALOMY (ALOMY (blackgrass)) [g/ha]	Pre-emergence activity (GR80) AMARE (AMARE (redroot pigweed)) [g/ha]	Pre-emergence activity (GR80) DIGSA (DIGSA (large crabgrass)) [g/ha]	Pre-emergence activity (GR80) SORHA [6] [g/ha]	Pre-emergence activity (GR80) SETFA (SETFA (giant foxtail)) [g/ha]	Pre-emergence activity (GR80) PANDI (PANDI (fall panicum)) [g/ha]
CN(C)C(=O)n1cnc(S(=O)(=O)C(F)(F)Cl)n1 [Example 85]	[empty]	[empty]	30 g/ha	100	100	30	100	300	100	100	100									
CN(C(=O)n1cnc(S(=O)(=O)C(F)(F)Cl)n1)C1CCCCC1 [Example 91]	100 g/ha	100 g/ha	10 g/ha	10	30	30	30	300	300	300	100	300	100	300	300					
COCCN(C)C(=O)n1cnc(S(=O)(=O)C(F)(F)Cl)n1 [Example 88]	100 g/ha	300 g/ha	30 g/ha	30	30	10	10	100	300	300	100		300		300	100	300			
CCN(CC)C(=S)n1cnc(S(=O)(=O)C(F)(F)Br)n1 [Example 46]	300 g/ha	300 g/ha	[empty]	100	300	300	100	300			300		300					300	300	300
